# From a melting point compilation (Tetko et al.; mined from patent text by program, amines drawn as free bases though some values may be those of a salt)
row,melting point,SMILES
1,98 to 102 °C,COC(=O)C1=C(N)C(CCCCC(=O)O)SC1 (configuration not stated)
2,141 to 143 °C,CN(C)C=NS(=O)(=O)c1ccc(Br)cc1
3,235 to 237 °C,Cc1cc(C)c2ccc(NC(=O)Nc3ccccc3CCc3cc(C(C)(C)C)c(O)c(C(C)(C)C)c3)nc2n1
4,104 to 107 °C,CON=C(C#N)c1ccc(Cl)c(CNC(=O)OC)c1
5,236 to 237 °C,COP(=O)(NC1C(=O)N2C(C(=O)OCc3ccc([N+](=O)[O-])cc3)=C(C=CN(C)C)CSC12)OC (configuration not stated)
6,118 to 120 °C,NC1=Nc2ccc(-c3cccc(Cl)c3)cc2C12CCCCC2
7,243 to 246 °C,CN(C)c1ccc(N=Nc2nc3ccccc3s2)cc1
8,101 to 102 °C,C=CCOC(=O)c1cc(C23CC4CC(CC(C4)C2)C3)c(OC)cc1F
9,163 to 166 °C,COc1cc(OC)nc(NC(=O)NS(=O)(=O)c2ccccc2CCBr)n1
10,205 to 208 °C,CCCCc1nc(NC(C)=O)[nH]c(=O)c1Cc1ccc(-c2ccccc2-c2nnn[nH]2)cc1
11,180 °C,O=C(CN1CCCCC1)Nc1ccc(-c2cc(-c3c[nH]nc3-c3ccccn3)ccn2)cc1
12,78 to 80 °C,COC(F)(F)C(F)(F)C(N)=O
13,209 to 210 °C,COc1cc(OC)c2c(=O)cc(-c3ccc(OC)c(I)c3)oc2c1
14,242 to 244 °C,O=C(O)c1cnc2cc(I)ccc2n1
15,147 to 149 °C,CN(C)C(=O)CON(Cc1ccc(F)cc1)C(=O)C1=C(O)C(=O)N(C)C1
16,67 to 69 °C,CSc1nc(C)cc2nccn12
17,175 to 177 °C,COc1ccccc1C(c1cccc2ccccc12)C(C)(C#N)C#N (configuration not stated)
18,115 to 118 °C,CC(CC#N)C(C#N)(c1cccc(C(F)(F)F)c1)N1CCOCC1 (configuration not stated)
19,170 to 173 °C,O=C(O)C1=Cc2cc(S(=O)(=O)NCc3ccco3)ccc2OC1C(F)(F)F (configuration not stated)
20,228 to 230 °C,CN(C)C(=O)CCc1ccc2c(c1)nc(N)c1nc(CO)n(CC(C)(C)O)c12
21,122 to 123 °C,CC(Oc1ccc(COc2ccc(Cl)cc2Cl)cc1)C(=O)O (configuration not stated)
22,122 to 123 °C,Oc1ccc2c(c1)CCN(c1ccc(Cl)cc1)C2
23,229 to 230 °C,Cc1nc2c(N)nc3ccccc3c2n1CCCCNS(C)(=O)=O
24,298 to 300 °C,NS(=O)(=O)c1ccc(-c2[nH]c3ccccc3c2-c2ccc(Cl)cc2)cc1
25,161 to 163 °C,C[C@H](N)C(=O)N(C(=O)OCc1ccccc1)c1ccccc1

row,melting point,SMILES
1,224 to 227 °C,COc1cc(OC)cc(-c2nn(C(C)c3oc4ccccc4c(=O)c3-c3cccc(F)c3)c3ncnc(N)c23)c1 (configuration not stated)
2,184 to 185 °C,CC(C)CCN1CCC(N(C)S(=O)(=O)c2ccc(Nc3nccc(Nc4ccc(F)cc4)n3)cc2)CC1
3,82 to 84 °C,CCOP(=O)(/C=C/c1cn(CC)nc1OCc1ccc(OCc2nc(-c3ccco3)oc2C)c(OC)c1)OCC
4,206 °C,CS(=O)(=O)C(C#N)=Cc1c(Cl)n(Cc2ccccc2)c2ccccc12
5,175 °C,Cc1ccc(C#Cc2ccc(NC(=O)OC(C)(C)C)c(N)c2)cc1
6,74 to 76 °C,CCOC(=O)c1ccc([C@H]2CC[C@H](NCc3ccccc3)CC2)cc1
7,161 to 162 °C,COc1cc2c(c3c1OC(C)(C)C3)C(c1ccc(=O)n(-c3cc(C)ccn3)c1)=NC(C)(C)C2
8,190 to 192 °C,O=C(O)c1ccccc1N1C(=O)c2cccc([N+](=O)[O-])c2C1=O
9,119 to 121 °C,CCCCc1nn(-c2cc(NC(=O)CC)ccc2Br)c(=O)n1Cc1ccc(-c2ccccc2S(=O)(=O)NC(C)(C)C)cc1F
10,215 to 216 °C,COc1ccc(C2CNC(=O)NC2)cc1OC(F)F
11,146 to 147 °C,Cc1nc(N2CCN(CCC3CC3)C2=O)sc1C(=O)NCc1cccnc1
12,170 to 172 °C,CC(Oc1ncn(-c2ccc(Br)cc2)n1)C(=O)NC1CC1 (configuration not stated)
13,147 to 149 °C,COC(=O)c1ccccc1NC(=O)OC1CC2C(=O)NC3(C(=O)NS(=O)(=O)C4CC4)CC3C=CCOCCCC(NC(=O)OC(C)(C)C)C(=O)N2C1 (configuration not stated)
14,185 to 189 °C,Cc1cccc(Nc2cc(Cl)nc(SCC(=O)NN)n2)c1C
15,247 °C,Cc1cc(-c2cc(C(F)(F)F)n3ncc(-c4ccncc4)c3n2)ccc1Cl
16,148 to 150 °C,COc1cc(O)cc(OC)c1/C=C/S(=O)(=O)CS(=O)(=O)/C=C/c1c(OC)cc(O)cc1OC
17,285 °C,Cc1nc2nc[nH]c2c2nc(-c3ccccc3)nn12
18,137 to 138 °C,N#CC=C1c2ccccc2C=Cc2ccccc21
19,184 to 185 °C,COc1cnc(C(=O)O)cc1OC1CCCC1
20,292 to 294 °C,COc1ccc(-c2cc(O)nc(Nc3ccc(OC)c(Cl)c3)n2)cc1
21,88 to 90 °C,CCN(CC)CCNC(=O)c1cnc2ccc(I)cc2c1F
22,109 to 110 °C,C#CC(Cc1ccc(OC)c(OC2CCCC2)c1)C(=O)O (configuration not stated)
23,136 to 138 °C,CCOC(=O)c1cc2ccc3c4ccccc4ccc3c2n1C
24,176 to 177 °C,COc1cccc(C(=N)NN2CCc3ccccc3C2=O)c1
25,79 to 81 °C,CN(C)c1c(-c2ccccc2)sc2ccc(Cl)cc12

row,melting point,SMILES
1,223 °C,O=C1NCC(Cn2cncn2)(c2ccc(Cl)cc2Cl)O1 (configuration not stated)
2,206 to 208 °C,COc1cnc[nH]c1=O
3,55 to 60 °C,CC(=CCCCC(C)(C)O)c1cccc(C=Cc2cc(O)cc(O)c2)c1
4,192 to 195 °C,O=[N+]([O-])c1ccc(-n2nnnc2-c2ccccc2-c2ccc(CBr)cc2)cc1
5,184 to 187 °C,CSc1cc2c(cc1C(F)(F)F)N(C(=O)Nc1ccc(CO)cc1)CC2
6,191 to 192 °C,CCN(CC)N(C(C)=O)c1nc2c(C)c3nc(N(C(C)=O)N(CC)CC)sc3cc2s1
7,130 to 135 °C,OC(c1ccccc1)c1cccnn1 (configuration not stated)
8,270 to 272 °C,Cc1c(O)ccc2c(=O)c(-c3ccc4c(c3)OCO4)coc12
9,277 to 279 °C,Cc1c(NC(=O)CC(C)(C)C)c(C)c2c(c1-c1c[nH]cn1)OCC2c1ccc(C(C)C)cc1 (configuration not stated)
10,104 to 106 °C,Cc1ccccc1-c1cc2ncccc2c(=O)n1C
11,172 to 173 °C,Cc1ccc(C(N)=S)nc1
12,186 to 188 °C,CONC(=O)c1cc(C(=O)OC)c2cc(Cc3ccc(F)cc3)cnc2c1O
13,280 °C,NS(=O)(=O)c1nnc(NC(=O)c2cnn3c(C(F)(F)F)cc(-c4ccc(C(F)(F)F)cc4)nc23)s1
14,214 °C,O=C(Nc1ccc(F)cc1)NN(c1ccccc1)c1ccccc1
15,145 to 147 °C,CN(C)CCC(Oc1ccc(NS(C)(=O)=O)cc1)c1ccccc1 (configuration not stated)
16,76.6 °C,Oc1cccc(CC2c3ccccc3CCc3ccccc32)c1
17,222 to 224 °C,CCOC(=O)C=c1sc2n(c1=O)Cc1ccccc1N=2
18,113 to 114 °C,CC(C)(C)[Si](C)(C)N1C(=O)CC1SC(c1ccccc1)(c1ccccc1)c1ccccc1 (configuration not stated)
19,153 °C,CN1CCC(OC2c3ccccc3CCn3c2nc(-c2ccccc2)c3I)CC1 (configuration not stated)
20,93 to 95 °C,CC(=O)OCc1c(Br)cccc1N1Cc2cc(N(C)C)ccc2C1=O
21,222 to 231 °C,CCOc1ccc(CCNC(=O)c2cnc3ccccc3c2)cc1S(N)(=O)=O
22,165 to 167 °C,COc1c2c(cc3ccc(OC(C)=O)cc13)-c1ccc(OC(C)=O)cc1CO2
23,209 to 210 °C,c1ccc(Nc2csc(-c3cn[nH]c3)n2)nc1
24,50 to 51 °C,CCCCCCCCCCC[C@H](CC(=O)N[C@@H](CO)C(=O)OCc1ccccc1)OC(=O)CCCCCCC
25,295 to 297 °C,CCc1c(Br)sc2[nH]c(=O)c(=O)[nH]c12

row,melting point,SMILES
1,69 to 71 °C,N#CC(Cl)Cc1ccc(Cl)cc1C(=O)c1ccccc1 (configuration not stated)
2,55.9 °C,CC(C)[C@@H]1C[C@@H](CO)NC1=O
3,129 to 130 °C,CSc1nn(C)c(=O)n1-c1ccccc1Oc1ccccc1
4,167 to 168 °C,Cc1ccc(S(=O)(=O)Nc2ccc([N+](=O)[O-])cc2Cl)cc1
5,153 to 157 °C,CCc1cc2c(=O)c(C(=O)O)cn(Cc3ccc(-c4ccccc4-c4nnn[nH]4)cc3)c2s1
6,154 to 155 °C,CN(C)Cc1cccc(OCCCNc2nc3ccccc3s2)c1
7,212 to 214 °C,Nc1ccc2nc(-c3ccccc3)oc2c1
8,9 °C,CON(C)C(=O)c1ccc(F)cc1
9,81 to 84 °C,CSc1nc2c(NCc3ccccc3)ncnc2n1C1OC(CO)C(O)C1O (configuration not stated)
10,168 to 170 °C,CCOC(c1ccc(Cl)c2nc3n(c12)CCCN3c1ccc(OC)nc1C)C(F)(F)F (configuration not stated)
11,55 to 57 °C,CCCN(CCC)C(=O)Cc1ccc(O)c([N+](=O)[O-])c1
12,198 to 200 °C,O=C(O)COc1ccc(-c2c3ccccc3c(Br)c3sc4ccccc4c23)cc1
13,45 to 46 °C,CCCCCCCCCCCCCCc1ccc(C(C)=O)c(O)c1
14,156 to 158 °C,O=C1CCCc2sc(-c3ccncc3)cc21
15,70 to 71 °C,C=CCCO[C@@H](Cc1ccc(OCCc2nc(C(C)(C)C)oc2C)c2ccsc12)C(=O)O
16,182 to 185 °C,CN(CCN(C)c1nc2ccccc2n1Cc1ccc(F)cc1)C(=O)OC(C)(C)C
17,148 to 150 °C,COc1ccc2c(c1)CC(=O)N2
18,111 to 112 °C,COc1ccc2c(c1)c(Br)cn2C(=O)OC(C)(C)C
19,190 to 192 °C,COc1ccc(C(=O)Nc2ccc(-c3ccc(S(C)=O)cc3)cc2)cc1CCCN(C)C (configuration not stated)
20,69 to 75 °C,Cc1cc(-n2c(C)ccc2-c2ccc(S(C)(=O)=O)cc2)ccc1-c1ccoc1
21,> 260 °C,Oc1ccc(Nc2n[nH]c3ncnc(Nc4cccc(Cl)c4)c23)cc1
22,150 °C,CCC(Oc1ccc(C=Cc2nc[nH]n2)cc1)C(N)=O (configuration not stated)
23,73 °C,CNC(=O)[C@@H]1C[C@@H](OC(C)(C)C)CN1S(=O)(=O)c1ccc(Cl)c(CBr)c1Cl
24,85 °C,c1cnc2c(c1)Cc1ncccc1-2

row,SMILES,melting point
1,O=C(O)CCNC(=O)C(Cl)(Cl)Cl,102 to 110 °C
2,Nc1ccc(S(=O)(=O)Nc2ccc(OP(N)(N)=O)cc2)cc1,174 to 175 °C
3,CC(=O)C1CCC2C3CCC4CC(O)C(Br)CC4(C)C3CCC12C (configuration not stated),171 to 175 °C
